The values below come from patent US20040072907A1, “Antipicornaviral compounds, compositions containing them, and methods for their use” (priority 1997, published 2004).

The target in data set [1] is T1, Recombinant Rhinovirus 3C protease serotype 14 (Human rhinovirus 14, UniProt P03303).
T1 construct: Recombinant Rhinovirus 3C proteases from serotypes 14, 16, and 2; made in house
Kind of data set: biochemical. The settings on record: RVP serotype-14, progress curves, enzyme start experiments.
Procedure: Stock solutions (50 mM, in DMSO) of various compounds were prepared; dilutions were in the same solvent. […] Assays contained 2% DMSO, 50 mM tris pH 7.6, 1 mM EDTA, a compound at the indicated concentrations, approximately 1 μM substrate, and 50-100 nM protease. […] The kobs/I values were obtained from reactions initiated by addition of enzyme rather than substrate. RVP activity is measured in the fluorescence resonance energy transfer assay. […] In the uncleavaed peptide, the EDANS fluorescence was quenched by the proximal DABCYL moiety. When the peptide was cleaved, the quenching was relieved, and activity was measured as an increase in fluorescence signal.
The data in the column designated kobs/I was measured from progress curves enzyme start experiments.

Data set [2] in a line: Cytotoxicity in mock-infected HI-HeLa cells (XTT, antirhinoviral assay). The settings on record: human; mock-infected HI-HeLa cells; line for HRV serotype-14. It counts as cell-based. On the procedure:
(§1) In the Cell Protection Assay, the ability of compounds to protect cells against HRV infection was measured by the XTT dye reduction method. This method is described in Weislow, O. S., Kiser, R., Fine, D. L., Bader, J., Shoemaker, R. H., Boyd, M. R., J. Natl. Cancer Inst. 1989, 81, 577-586, the disclosure of which is incorporated herein by reference.
(§2) Infected or mock-infected cells were resuspended at 8×10^5 cells per mL and incubated with appropriate concentrations of compounds of formula I. Two days later, XTT/PMS was added to test plates, and the amount of formazan produced was quantified spectrophotometrically at 450/650 nm. […] The therapeutic index (TI) was calculated by dividing the CC50 by the EC50.
(§3) HRV stocks were propagated, and viral assays were performed in HI-HeLa cells (ATCC). Cells were grown in Minimal Essential Medium, available from Life Technologies, with 10% fetal bovine serum.

Another data set concerns HRV serotype-14. Kind of data set: Antirhinoviral HI-HeLa cell culture assay (XTT cell protection), HRV-14. It counts as cell-based, human rhinovirus. As for the experimental part: as §1, §2
(§4) All strains of human rhinovirus (HRV) for use in this assay were purchased from American Type Culture Collection (ATCC) except for HRV serotype-14, which was produced from the infectious cDNA clone constructed and supplied to Applicants by Dr. Robert Rueckert at the Institute for Molecular Virology, University of Wisconsin, Madison, Wis. HRV stocks were propagated, and viral assays were performed in HI-HeLa cells (ATCC). Cells were grown in Minimal Essential Medium, available from Life Technologies, with 10% fetal bovine serum.
(§5) The compounds were tested against control compounds WIN 51711, WIN 52084, and WIN 54954, all obtained from Sterling-Winthrop Pharmaceuticals, and control compound Pirodavir, obtained from Janssen Pharmaceuticals. Antiviral data obtained for the test compounds are shown in Table 2 where all data are for HRV serotype-14 unless otherwise noted in parentheses.
On the technique in general: Tetrazolium dyes change colour on reduction, which living cells bring about.

In data set [3] the test system is HI-HeLa cells. The data set is described as follows: Cytotoxicity in uninfected HI-HeLa cells (XTT, anticoxsackieviral assay). The settings on record: one day. It counts as cell-based. As for the experimental part: (§6) The Coxsackie strain A-21 (CVA-21) was purchased from American Type Culture Collection (ATCC). Virus stocks were propagated, and antiviral assays were performed in HI-HeLa cells (ATCC). Cells were grown in Minimal Essential Medium with 10% fetal bovine serum.
(§7) The ability of compounds to protect cells against CVA-21 infection was measured by the XTT dye reduction method. This method is described in Weislow, O. S., Kiser, R., Fine, D. L., Bader, J., Shoemaker, R. H., Boyd, M. R., J. Natl. Cancer Inst. 1989, 81, 577-586, the disclosure of which is incorporated herein by reference. HI-HeLa cells were infected with CVA-21 at a multiplicity of infection (m.o.i.) of 0.05 (CVA-21) or mock-infected with medium only. Infected or uninfected cells were resuspended at 4×10^4 cells per mL and incubated with appropriate concentrations of drug. One day later, XTT/PMS was added to test plates, and the amount of formazan produced was quantified spectrophotometrically at 450/650 nm. […] The therapeutic index (TI) was calculated by dividing the CC50 by the EC50.

Data set [4] relates to HI-HeLa cells. The data set is described as follows: Cytotoxicity in mock-infected HI-HeLa cells (XTT, antirhinoviral assay). It counts as cell-based. The settings on record: mock-infected HI-HeLa cells, read-out: CC50. As for the experimental part: as §1, §2, §3
The test system of the next data set is HRV serotype 2. Kind of data set: Antirhinoviral HI-HeLa cell culture assay (XTT cell protection), HRV-2. It counts as cell-based, human rhinovirus. The settings on record: HRV serotype 2, HI-HeLa cells. As for the experimental part: as §1, §2, §4, §5
The next data set concerns HRV serotype 1A. The data set is described as follows: Antirhinoviral HI-HeLa cell culture assay (XTT cell protection), HRV-1A. It counts as cell-based, human rhinovirus. The settings on record: HI-HeLa cells. On the procedure: as §1, §2, §4, §5
The test system of a further data set is HRV serotype 10. The data set is described as follows: Antirhinoviral HI-HeLa cell culture assay (XTT cell protection), HRV-10. It counts as cell-based, human rhinovirus. The settings on record: HRV serotype 10, HI-HeLa cells. On the procedure: as §1, §2, §4, §5
For a further data set, the system named is HRV serotype 89. Kind of data set: Antirhinoviral HI-HeLa cell culture assay (XTT cell protection), HRV-89. The settings on record: HRV serotype 89, HI-HeLa cells. It counts as cell-based, human rhinovirus. On the procedure:
as §1, §2, §4, §5

Another data set relates to HRV serotype 16. Kind of data set: Antirhinoviral HI-HeLa cell culture assay (XTT cell protection), HRV-16. It counts as cell-based, human rhinovirus. The settings on record: HRV serotype 16, HI-HeLa cells. As for the experimental part:
as §1, §2, §4, §5

The next data set has as its system HRV serotype 39. Kind of data set: Antirhinoviral HI-HeLa cell culture assay (XTT cell protection), HRV-39. It counts as cell-based, human rhinovirus. The settings on record: HRV serotype 39, HI-HeLa cells. On the procedure:
as §1, §2, §4, §5

Data set [5] in a line: Cytotoxicity in uninfected HI-HeLa cells (XTT, anticoxsackieviral assay). It counts as cell-based. The settings on record: human, one day. On the procedure: as §6, §7
The test system of data set [6] is Coxsackie strain A-21 (CVA-21). Kind of data set: Anticoxsackieviral HI-HeLa cell culture assay (XTT cell protection). It counts as cell-based. The settings on record: CVA-21, HI-HeLa cells, m.o.i. 0.05, one day. As for the experimental part: as §6
as §7, with “HI-HeLa cells were infected with CVA-21 at a multiplicity of infection (m.o.i.) of 0.05 (CVA-21) or mock-infected with medium only.” left out
The compounds were tested against control compound WIN 54954, obtained from Sterling-Winthrop Pharmaceuticals, and control compound Pirodavir, obtained from Janssen Pharmaceuticals.

Where [7] appears, read: HRV serotype-14, HI-HeLa cells, m.o.i. 0.13, two days, XTT, read-out: EC50.

Like-named read-outs stand apart in the source and are kept apart here. Bounds are passed on as bounds.

T1 sequence (P03303 1538-1719): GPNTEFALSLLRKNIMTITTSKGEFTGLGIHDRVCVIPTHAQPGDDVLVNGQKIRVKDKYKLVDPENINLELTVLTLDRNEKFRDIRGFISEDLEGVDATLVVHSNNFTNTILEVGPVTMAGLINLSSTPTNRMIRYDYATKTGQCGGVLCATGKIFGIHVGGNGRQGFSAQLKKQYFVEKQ

Consider `CC(C)CC(NC(=O)SCc1ccccc1)C(=O)CC(Cc1ccccc1)C(=O)NC(C=CC(=O)N1CCc2ccccc21)CCC(N)=O` [Compound 3, (2,3-Dihydroindole)-3-(BnSCO-L-LeuΨ[COCH2]-L-Phe-L-Gln)-E-Propenamide], for which the kinact/KI in [1] (read-out: kobs/I) came to 29200 M⁻¹ s⁻¹. For the same compound, it took 50.1 µM to reach half-maximal cytotoxicity in data set [2] (CC50 at 2 days). The concentration giving a half-maximal response (EC50) – broadly, the concentration giving half of the maximal effect – with HRV serotype-14 (Human rhinovirus sp., 48 h) was determined as 1.9 µM.

Consider `CCOC(=O)/C=C/C(CCC(N)=O)NC(=O)C(CC(=O)C(NC(=O)SC1CCCC1)C(C)C)Cc1ccccc1` [Compound 7, Ethyl-3-(CyPentylSCO-L-ValΨ[COCH2]-L-Phe-L-Gln)-E-Propenoate], for which the CC50 in the data set with HI-HeLa cells [3], with HI-HeLa cells [4] (line for HRV serotype 2), in the data set with HI-HeLa cells [4] (line for HRV serotype 10), with HI-HeLa cells [4] (line for HRV serotype 39) and in the data set with HI-HeLa cells [4] (line for HRV serotype 89) was greater than 10 µM each time.

As to `CCOC(=O)/C=C/C(CCC(N)=O)NC(=O)C(CC(=O)C(CC(C)C)NC1CCCC1)Cc1ccc(F)cc1` (centres unmarked) [Compound 19], in [1], the kobs/I was 67,200 M^−1sec^−1. Further, the EC50 in the data set with HRV serotype 2 turned out to be 0.71 µM; in the data set with HRV serotype 1A it was 0.6 µM; in the data set on HRV serotype 10, 1.6 µM; in the data set on HRV serotype-14 (setting [7]), 0.28 µM. Also, the CC50 in the data set on HI-HeLa cells [4] (line for HRV serotype 1A), in the data set with HI-HeLa cells [4] (line for HRV serotype 2), with HI-HeLa cells [4] (line for HRV serotype 10) and in the data set on HI-HeLa cells [4] (line for HRV serotype-14) was greater than 3 µM each time.

Take `CCOC(=O)/C=C/C(CCC(N)=O)NC(=O)C(CC(=O)C(NC(=O)OC1CCCC1)C(C)C)Cc1ccc(C)cc1` (centres unmarked) [Compound 20]: the EC50 with HRV serotype 89 was determined as 0.47 µM; in the data set on HRV serotype 16 it was 0.15 µM; in the data set with HRV serotype 2, 0.56 µM; with HRV serotype 1A, 0.53 µM; in the data set on HRV serotype-14 (setting [7]) it was 0.042 µM; in the data set on HRV serotype 39, 1.2 µM. The CC50 with HI-HeLa cells [4] (line for HRV serotype 1A), in the data set on HI-HeLa cells [4] (line for HRV serotype 2), with HI-HeLa cells [4] (line for HRV serotype 10), in the data set with HI-HeLa cells [4] (line for HRV serotype 16), in the data set with HI-HeLa cells [4] (line for HRV serotype 39) and with HI-HeLa cells [4] (line for HRV serotype 89) was greater than 3 µM each time. The CC50 (in general, the concentration giving 50% cytotoxicity) in the data set with HI-HeLa cells [4] (line for HRV serotype-14) was greater than 3 µM.

With `CCOC(=O)/C=C/C(CCC(N)=O)NC(=O)C(CC(=O)C(CC(C)C)NC(=O)SC1CCCC1)Cc1ccc(C)cc1` [Compound 21, Ethyl-3-(CyPentylSCO-L-LeuΨ[COCH2]-L-(p-CH3)Phe-L-Gln)-E-Propenoate], the EC50 in the data set with HRV serotype 2 was 1 µM; with HRV serotype 1A, 0.56 µM; with HRV serotype 10 it was 1.4 µM. Moreover, the CC50 with HI-HeLa cells [4] (line for HRV serotype 1A), in the data set on HI-HeLa cells [4] (line for HRV serotype 2), in the data set with HI-HeLa cells [4] (line for HRV serotype 10) and in the data set with HI-HeLa cells [4] (line for HRV serotype-14) was greater than 10 µM each time.

Consider `CCOC(=O)/C=C/C(CCC(N)=O)NC(=O)C(CC(=O)C(NC(=O)SC1CCCC1)C(C)(C)C)Cc1ccccc1` [Compound 22, Ethyl-3-(CyPentylSCO-L-tert-LeuΨ[COCH2]-L-Phe-L-Gln)-E-Propenoate], for which the EC50 is 0.4 µM with HRV serotype 16, 0.43 µM in the data set with HRV serotype 1A, 0.05 µM with HRV serotype-14 (setting [7]) and 0.4 µM with HRV serotype 39. Further, the CC50 in the data set with HI-HeLa cells [4] (line for HRV serotype 1A), in the data set on HI-HeLa cells [4] (line for HRV serotype 2), in the data set on HI-HeLa cells [4] (line for HRV serotype 10), with HI-HeLa cells [4] (line for HRV serotype 16), in the data set with HI-HeLa cells [4] (line for HRV serotype 39) and with HI-HeLa cells [4] (line for HRV serotype 89) was greater than 32 µM each time. The CC50 in the data set on HI-HeLa cells [4] (line for HRV serotype-14) is greater than 32 µM.

On to `CCOC(=O)/C=C/[C@H](CCC(N)=O)NC(=O)[C@@H](CC(=O)[C@@H](NC(=O)OC1CCCC1)C(C)C)Cc1ccc(F)cc1` [Compound 25, Ethyl-3-(CyPentylOCO-L-ValΨ[COCH2]-L-(p-F)Phe-L-Gln)-E-Propenoate], for which the EC50 in the data set with HRV serotype 89 amounted to 0.32 µM; with HRV serotype 16, 0.71 µM; in the data set with HRV serotype 1A, 0.9 µM; in the data set on HRV serotype 10 it was 1.7 µM; with HRV serotype-14 (setting [7]) it was 0.14 µM; in the data set on HRV serotype 39, 0.56 µM. For the same compound, the CC50 in the data set on HI-HeLa cells [4] (line for HRV serotype 1A), with HI-HeLa cells [4] (line for HRV serotype 2), in the data set on HI-HeLa cells [4] (line for HRV serotype 10), in the data set on HI-HeLa cells [4] (line for HRV serotype 16), in the data set on HI-HeLa cells [4] (line for HRV serotype 39) and in the data set with HI-HeLa cells [4] (line for HRV serotype 89) was greater than 3 µM in each case. Moreover, the CC50 with HI-HeLa cells [4] (line for HRV serotype-14) is greater than 3 µM.

Compound `CCOC(=O)c1ccc(OCCC2CCN(c3ccc(C)nn3)CC2)cc1` [Pirodavir, reference compound] yielded a CC50 at 1 day in data set [5] greater than 100 µM. The CC50 at 2 days in [2] is greater than 10 µM. Besides, the EC50 in the data set on HRV serotype-14 (Human rhinovirus sp., 48 h, HRV serotype-14, HI-HeLa cells, m.o.i. 0.13, two days, XTT, read-out: EC50) is 0.03 µM; in data set [6] (24 h), greater than 100 µM.

As to `Cc1cc(CCCCCOc2c(Cl)cc(C3=NCCO3)cc2Cl)on1` [WIN 54954, reference compound], the CC50 was greater than 100 µM with HI-HeLa cells [3] and greater than 63 µM with HI-HeLa cells [4] (line for HRV serotype-14). Besides, the EC50 is 2.13 µM in the data set with HRV serotype-14 (setting [7]) and greater than 100 µM in [6].

Consider “Ethyl-3-(CBZ-L-LeuΨ[COCH2]-D/L-Phe-L-Gln)-E-Propenoate [Compound 1 + 9 (˜1:1)]”, for which the EC50 in the data set with HRV serotype 89 came out at 5.1 µM; with HRV serotype 16, 2.8 µM; in the data set on HRV serotype 2, 2 µM; in the data set with HRV serotype 10, 4.1 µM; with HRV serotype-14 (setting [7]), 1.3 µM.
